Reference: patent publication US20060122153A1, “Antineoplastic ether lipid compounds with modifications at the sn-2 carbon” (priority 2003, published 2006)
Values joined by “and” are separate entries in the source; they are usually repeats but may differ in a detail not shown here. Identical values can stand only once.

Tests used:
Type in all cases: cell-based, human
RPMI-8226 = test: NCI growth inhibition screen, leukemia panel; parameters: key to Performance as compared to ET-18-O—CH3: = means equivalent activity; + means that it appears to be significantly better (i.e., by ˜2x); < means it appears to be less active than ET18OCH3 (˜2x); a combination like =/+ or </+ means that activity is dependent upon the isomer; a combination like =/+ or </+ means that activity is dependent upon the isomer; conditions: for Performance as compared to ET-18-O—CH3: RPMI-8226, Leukemia, from GI50s; for activity (in words): RPMI-8226 cell line, NCI screen
Experimental: (§1) Candidates deemed suitable for in vivo testing were then synthesized in large scale quantities and some of this material was sent to the NCI's Developmental Therapeutics Program for a battery of growth inhibitory studies against various human tumor cell lines (60 cell lines, 9 different panels). The remainder of the material was used to assess in vivo efficacy using murine tumor models. Additionally, studies were conducted on the lead candidates to discern mechanism of action with particular emphasis on these agents apoptotic ability as measured by caspase 3 activity. The details (materials and methods) for these various assays are described further in the following discussion.
(§2) Ten compounds were also sent to NCI's Drug Discovery Program for screening against numerous human tumor cell lines (9 panels total: renal ovarian, colon, CNS, non-small cell lung, leukemia, breast, melanoma, and prostate). The data are shown in FIGS. 2a-i which also include data regarding D- and L-ET-18-OCH3 (listed as L-EL and D-EL in the figures). Upon examining the data, one is struck by how 1R and 1a′S standout in comparison to the other compounds, especially for the renal, ovarian, colon, and CNS panels.

K-562 = test: NCI growth inhibition screen, leukemia panel; parameters: key to Performance as compared to ET-18-O—CH3: = means equivalent activity; + means that it appears to be significantly better (i.e., by ˜2x); < means it appears to be less active than ET18OCH3 (˜2x); a combination like =/+ or </+ means that activity is dependent upon the isomer; a combination like =/+ or </+ means that activity is dependent upon the isomer; conditions: for Performance as compared to ET-18-O—CH3: K-562, Leukemia, from GI50s
Experimental: as §1, §2

U937 = test: In vitro growth inhibition (GI50), cell growth assay; conditions: U937 tumor cell line, 3 days
Experimental: After 3 days of incubation, cell growth was determined.
To determine the Growth Inhibition in the suspension cell lines, cell numbers were directly counted instead of using the SRB assay which determines the total cell protein. One day prior to the drug treatment, 40,000 cells per well were seeded into 24-well plates in a volume of 0.5 mL. Stock solutions were diluted with complete medium to twice the desired final concentrations, and then 0.5 mL aliquots of each dilution were added to the designated wells. After 3 days incubation, cell growth was determined by counting cell number using a coulter counter (Z-M, coulter). Cell counts were-also taken at time 0 and subtracted from the test results to give net growth.

MCF7/ADR = test: In vitro growth inhibition (GI50), SRB assay; conditions: MCF7/ADR tumor cell line, 3 days
Source text: (§3) The following cell lines were selected from the cell bank for screening and GI50 studies: MCF-7: human breast tumor, MCF-7/ADR: MCF-7 adriamycin resistant subline, HT-29: human colon carcinoma, A-549: human non-small cell lung cancer, NIH-3T3: mouse Swiss embryo fibroblast and WI-38: human lung fibroblast, SKMEL-28: human melanoma, Lewis Lung: mouse lung carcinoma, DU-145: prostate carcinoma, B16F10: mouse melanoma, L1210: murine lymphocytic leukemia, P-388: murine leukemia, U-937: human histolytic lymphoma. Except HT-29, WI-38, NIH-3T3 and Lewis Lung which were obtained from the American Type Culture Collection (Rockville, Md.) all the other cell lines were obtained from National Cancer Institute—Frederick Research Facility (Frederick, Md.). All the cell lines were grown in RPMI-1640 medium containing 10% fetal bovine serum (FBS) except WI-38 and DU-145 which were grown in EMEM+10% FBS at 37° C., 5% CO2 and 100% humidity and NIH-3T3, Lewis Lung, B16F10 and L1210 which were grown in DMEM containing 10% FBS (10% HS for L1210). All the adherent cell lines were detached from the culture flasks by addition of 2-3 ml of 0.05% trypsin-EDTA. Thereafter, trypsin was inactivated by addition of 10 mL of 10% serum-containing RPMI-1640 medium. Cells were separated into a single-cell suspension by gentle pipetting action. Depending on the cell type, […] to 10,000 cells were plated onto 96-well plates a day prior to the drug treatment, in a volume of 100 μl per well.
(§4) The test compounds were made in-house and the compounds were dissolved PBS or saline at a stock concentration of approximately 20 mM, which is 400 times the desired final maximum test concentration. The stock solutions were then diluted with complete medium to twice the desired final concentration. 100 μl aliquots of each dilution was then added to the designated wells. After 3 days of incubation, cell growth was determined.
(§5) The SRB assay was performed as described by Monks, A., Scudiero, D., Skehan, P., Shoemaker, R., Paull, K., Vistica, D., Hose, C., Langley, J., Cronise, P., and Vaigro-Wolff, A. Feasibility of a high-flux anticancer drug screen using a diverse panel of cultured human tumo-r cell lines. J Natl Cancer Inst, 83: 757-766, 1991 with minor modifications. Following drug treatment, cells were fixed with 50 μl of cold 50% (wt/vol) trichloroacetic acid (TCA) for 60 minutes at 4° C. The supernatant was discarded, and the plates were washed six times with deionized water and then air dried. The precipitate was stained with 100 μl SRB solution (0.4% wt/vol in 1% acetic acid) for 10 minutes at room temperature, and free SRB was removed by washing three times with 1% acetic acid, and the plates were then air dried. Bound SRB was solubilized with Tris buffer (10 mM), and the ODs were read using an automated plate reader (Bio-Rad, Model 3550-UV) at 490 nm. Background values were subtracted from the test data, and the data was calculated as a % of control. […] Percentage growth was calculated as described by, Peters, A. C., Ahmad, I., Janoff, A. S., Pushkareva, M. Y., and Mayhew, E. Growth Inhibitory effects of liposome-associated 1-o-octadecyl-2-o-methyl-sn-glycero-3-phosphocholine. Lipids, 32:1045-1054, 1997. The raw optical density data Was imported into an Excel spreadsheet to determine dose responses. […] By varying drug concentration,-dose response curves were generated and the GI-50 values were calculated. The GI50 values for each experiment were calculated using data obtained from three duplicate wells on two separate plates.
(§6) For growth inhibitory evaluation, we used five human tumor cell lines (U937; HT29; A549; MCF7; MCF7/ADR) and two normal fibroblast cell lines (NIH-3T3, murine; WI-38, human).

A549 = test: In vitro growth inhibition (GI50), SRB assay; conditions: A549 tumor cell line, 3 days
Source text: as §3, §4, §5, §6

HT29 = test: In vitro growth inhibition (GI50), SRB assay; conditions: HT29 tumor cell line, 3 days
Source text: as §3, §4, §5, §6

MCF7 = test: In vitro growth inhibition (GI50), SRB assay; conditions: for GI50: MCF7 tumor cell line, 3 days; for effect on MCF7 growth compared to ET-18-OCH3 (in words): separate in-house study, Table 3
Source text: as §3, §4, §5, §6

Structure (SMILES)	Performance as compared to ET-18-O—CH3 (RPMI-8226)	activity (in words) (RPMI-8226)	Performance as compared to ET-18-O—CH3 (K-562)	GI50 (U937)	GI50 (MCF7/ADR)	GI50 (A549)	GI50 (HT29)	GI50 (MCF7)	effect on MCF7 growth compared to ET-18-OCH3 (in words) (MCF7)	activity (in words) (K-562; K-562 cell line, NCI screen)
CCCCCCCCCCCCCCCCCCOC[C@@H](COP(=O)([O-])OCC[N+](C)(C)C)OS(C)(=O)=O [1a′S]	</+	poor activity	=/+	1.4 µM	39 µM	9.3 µM	2.6 µM	31.3 µM	appeared worse	–
CCCCCCCCCCCCCCCCCCOCC(COP(=O)([O-])OCC[N+](C)(C)C)OS(C)(=O)=O (stereo not drawn) [Compound 1aR]	=/+	–	=/+	1.4 µM	> 40 µM	6 µM and 6.6 µM	2.1 µM and 2.3 µM	24.3 µM and 26.4 µM	appeared worse	–
CCCCCCCCCCCCCCCCCCOCC(COP(=O)([O-])OCC[N+](C)(C)C)OC [D-ET18OCH3, 1-O-octadecyl-2-O-methyl-glycerophosphocholine, reference compound]	–	extremely poor activity	–	1.4 µM	25.1 µM	8 µM	5.1 µM	14.6 µM	–	extremely poor activity
